Data taken from PMC4645160, “Targeting kinases with anilinopyrimidines: discovery of N-phenyl-N’-[4-(pyrimidin-4-ylamino)phenyl]urea derivatives as selective inhibitors of class III receptor tyrosine kinase subfamily” (Scientific Reports, 2015).

Assays:
A375 cells = assay: MTT cytotoxicity assay, A375 melanoma cells; type: cell-based; details: Homo sapiens, A-375; MTT test, 72 h; read-out: A375 IC50 (μM) ± SD
Method: (§1) The cytotoxic profile of 19 and 27 was assessed on a wider panel of human tumor cell lines including also examples of breast (MCF-7), cervical (A431), colorectal (HCT-15), and ovarian (2008) cancers as well as melanoma (A375), besides lung (A549) and pancreatic (BxPC3) cancer cells. IC50 values, calculated from the dose-survival curves obtained after 72 h of drug treatment from the MTT test, are reported in Table 2. […] Both compounds were endowed with a cytotoxic potency higher than that of SU, eliciting IC50 values in the low micromolar range.
(§2) All compounds, except derivative 27, were dissolved in DMSO just before the experiment, and a calculated amount of drug solution was added to the cell growth medium to a final solvent concentration of 0.5%, which had no discernible effect on cell killing. Compound 27 was dissolved in a 0.9% NaCl solution just before the experiment.
(§3) Human lung (A549), breast (MCF-7), pancreas (BxPC3), and colon (LoVo) carcinoma cell lines along with melanoma (A375) were obtained from American Type Culture Collection (ATCC, Rockville, MD). Human non-tumor embryonic kidney HEK293 cells were obtained from European Collection of Cell Cultures (ECACC, Salisbury, UK). Human cervical carcinoma A431cells were kindly provided by Prof. F. Zunino (Division of Experimental Oncology B, Istituto Nazionale dei Tumori, Milan, Italy). Human ovarian cancer 2008 cells were kindly provided by Prof. G. Marverti (Dept. of Biomedical Science of Modena University, Italy). […]
(§4) The growth inhibitory effect towards human cell lines was evaluated by means of MTT (tetrazolium salt reduction) assay. […] After overnight incubation, the inhibition of cell growth induced by the tested complexes was detected by measuring the absorbance of each well at 570 nm using a Bio-Rad 680 microplate reader (Bio-Rad, Hercules, CA). Mean absorbance for each drug dose was expressed as a percentage of the control untreated well absorbance and plotted vs drug concentration.

KIT = target: T1, KIT (Homo sapiens, UniProt P10721); assay: KinomeScan Kd determination, KIT; type: binding; details: for KdRTK/KdKIT, KIT: Kd KIT over Kd KIT; for Kd: KinomeScan
T1 construct: purchased DiscoverX (KinomeScan service)
Method: The compounds were evaluated using the KinomeScan™ platform (http://www.discoverx.com/services/drug-discovery-development-services/kinase-profiling/kinomescan), that measures the ability of the test compound to disrupt the complex between a high affinity ATP-mimic probe immobilized on a solid support and the kinase of interest. The KinomeScan is a very helpful technology for the fast and reliable screening of a number of compounds against a wide and customizable panel of kinases. Besides, it is not based on the use of hazardous radioactive ^32P-ATP and has a very low rate of false positive (<1%)[44]. The screening platform outputs a “Percent of Control” (POC) value, statistically correlated to the dissociation constant (Kd) value (http://www.discoverx.com/tools-resources/leadhunter-study-reports-data-analysis), for each pair of kinase/ligand. The POC is calculated as reported in equation (1): […]
The ability of compounds 19 and 27 to bind the class III RTK members was measured (Table 2; see also Figs S3 and S4 for dose/response curves).
Figure S3. Dose/response curve for compound 19 against tested kinases for Kd determination. The amount of kinase measured by qPCR (Signal; y-axis) is plotted against the corresponding compound concentration in nM in log10 scale (x-axis). Data points marked with an "x" were not used for Kd determination.
(1 picture or pasted object on this page, not shown here)
Figure S4. Dose/response curve for compound 27 against tested kinases for Kd

LoVo cells = assay: MTT cytotoxicity assay, LoVo colon carcinoma cells; type: cell-based; details: Homo sapiens, MTT test, 72 h, read-out: LoVo IC50 (μM) ± SD
Method: as §1, §2, §3, §4

HEK293 cells = assay: MTT cytotoxicity assay, non-tumor HEK293 cells; type: cell-based, human; details: for IC50: Homo sapiens, HEK293, MTT test, 72 h, non-tumor cells, read-out: HEK293 IC50 (μM) ± SD
Method: F. Zunino (Division of Experimental Oncology B, Istituto Nazionale dei Tumori, Milan, Italy).
The growth inhibitory effect towards human cell lines was evaluated by means of MTT (tetrazolium salt reduction) assay. […] Triplicate cultures were established for each treatment.

2008 cells = assay: MTT cytotoxicity assay, 2008 ovarian cancer cells; type: cell-based; details: Homo sapiens; MTT test, 72 h; read-out: 2008 IC50 (μM) ± SD
Method: as §1, §2, §3, §4

A549 cells = assay: MTT cytotoxicity assay, A549 lung cancer cells; type: cell-based, human; details: for IC50: Homo sapiens, A549, 72 h, MTT test, 72 h of drug treatment, read-out: A549 IC50 (μM) ± SD
Method: Compounds active against at least one kinase among EGFR and class III RTKs were evaluated for their cytotoxic properties against two different human cancer cell lines, namely non small cells A549 lung cancer cells (sensitive to EGFR inhibitors)[46] and pancreatic BxPC3 adenocarcinoma (sensitive to both PDGFRβ and EGFR inhibitors)[47][48] cells. […] The results, expressed as IC50 values (μM) calculated from the dose-survival curves obtained after 72 h of drug treatment from the MTT test, are reported in Table 1.
as §2
Human lung (A549), breast (MCF-7), pancreas (BxPC3), and colon (LoVo) carcinoma cell lines along with melanoma (A375) were obtained from American Type Culture Collection (ATCC, Rockville, MD). Human non-tumor embryonic kidney HEK293 cells were obtained from European Collection of Cell Cultures (ECACC, Salisbury, UK). Human cervical carcinoma A431cells were kindly provided by Prof. F. Zunino (Division of Experimental Oncology B, Istituto Nazionale dei Tumori, Milan, Italy). Human ovarian cancer 2008 cells were kindly provided by Prof. G. Marverti (Dept. of Biomedical Science of Modena University, Italy). Cell lines were maintained in the logarithmic phase at 37 °C in a 5% carbon dioxide atmosphere using the following culture media containing 10% fetal calf serum (Euroclone, Milan, Italy), antibiotics (50 units ∙ mL^−1 penicillin and 50 μg ∙ mL^−1 streptomycin) and 2 mM l-glutamine: i) RPMI-1640 medium (Euroclone) for MCF-7, A431, BxPC3 and 2008 cells; ii) F-12 HAM’S (Sigma Chemical Co.) for A549 and LoVo cells; iii) D-MEM medium (Euroclone) for HEK293 cells.
The growth inhibitory effect towards human cell lines was evaluated by means of MTT (tetrazolium salt reduction) assay. Briefly, 3–8 ∙ 10^3 cells/well, dependent upon the growth characteristics of the cell line, were seeded in 96-well microplates in growth medium (100 μL) and then incubated at 37 °C in a 5% carbon dioxide atmosphere. After 24 h, the medium was removed and replaced with a fresh one containing the test compound at the appropriate concentration. Triplicate cultures were established for each treatment. After 72 h, each well was treated with 10 μL of a 5 mg ∙ mL-1 MTT (3-(4,5-dimethylthiazol-2-yl)-2,5-diphenyltetrazolium bromide) saline solution, and after 5 h additional incubation, 100 μL of a sodium dodecylsulfate (SDS) solution in HCl 0.01 M were added. After overnight incubation, the inhibition of cell growth induced by the tested complexes was detected by measuring the absorbance of each well at 570 nm using a Bio-Rad 680 microplate reader (Bio-Rad, Hercules, CA). Mean absorbance for each drug dose was expressed as a percentage of the control untreated well absorbance and plotted vs drug concentration.

T1 sequence (P10721 26-976): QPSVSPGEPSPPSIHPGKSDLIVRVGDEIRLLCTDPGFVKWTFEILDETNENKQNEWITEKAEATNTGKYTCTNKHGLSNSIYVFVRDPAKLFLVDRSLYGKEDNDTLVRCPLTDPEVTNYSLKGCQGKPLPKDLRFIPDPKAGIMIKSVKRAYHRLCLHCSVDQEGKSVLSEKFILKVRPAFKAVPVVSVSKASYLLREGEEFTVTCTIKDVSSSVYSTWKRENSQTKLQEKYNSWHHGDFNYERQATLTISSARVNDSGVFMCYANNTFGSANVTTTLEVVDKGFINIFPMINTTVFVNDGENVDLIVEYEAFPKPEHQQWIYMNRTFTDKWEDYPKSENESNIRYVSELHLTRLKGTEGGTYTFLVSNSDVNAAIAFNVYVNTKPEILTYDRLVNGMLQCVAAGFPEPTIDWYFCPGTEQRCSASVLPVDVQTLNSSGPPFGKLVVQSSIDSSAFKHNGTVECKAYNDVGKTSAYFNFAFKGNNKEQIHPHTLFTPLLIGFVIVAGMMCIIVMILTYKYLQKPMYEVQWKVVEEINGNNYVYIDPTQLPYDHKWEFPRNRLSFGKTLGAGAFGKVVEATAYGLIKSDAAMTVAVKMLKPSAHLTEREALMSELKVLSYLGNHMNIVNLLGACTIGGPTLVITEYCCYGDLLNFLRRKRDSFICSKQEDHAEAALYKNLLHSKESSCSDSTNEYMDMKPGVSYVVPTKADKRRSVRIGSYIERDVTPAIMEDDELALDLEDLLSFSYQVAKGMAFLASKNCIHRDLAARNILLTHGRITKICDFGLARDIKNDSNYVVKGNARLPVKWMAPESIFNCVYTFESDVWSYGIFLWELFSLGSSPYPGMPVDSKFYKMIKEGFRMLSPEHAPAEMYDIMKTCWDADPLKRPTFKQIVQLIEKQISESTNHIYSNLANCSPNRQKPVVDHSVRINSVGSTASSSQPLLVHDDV

| SMILES | IC50 (A375 cells) | KdRTK/KdKIT, KIT (KIT) | Kd (KIT) | IC50 (LoVo cells) | IC50 (HEK293 cells) | Selectivity Index (HEK293 cells; IC50 toward non cancerous HEK293 cells divided by the average IC50 for the malignant cells (A549, BxPC3)) | Selectivity index, folds higher than that calculated with SU (HEK293 cells; SI of compound versus SI of SU) | IC50 (2008 cells) | IC50 (A549 cells) | Potency relative to SU (A549) (A549 cells; ratio between IC50 of sunitinib and IC50 of tested compound, A549) | Potency improvement Kd19/Kd27, KIT (KIT; 27 versus 19) |
| --- | --- | --- | --- | --- | --- | --- | --- | --- | --- | --- | --- |
| O=C(Nc1ccccc1)Nc1ccc(Nc2cc(-c3ccccc3)ncn2)cc1 [Compound 19] | 6.41 ± 2.02 µM | 1 | 22 nM | 7.45 ± 1.53 µM | 7.33 ± 1.75 µM | 3.84 | approximately 1.5 | 1.98 ± 0.75 µM | 3.16 ± 1.12 µM | 1.97 | – |
| O=C(CN1CCOCC1)Nc1cccc(-c2cc(Nc3ccc(NC(=O)Nc4ccccc4)cc3)ncn2)c1 [Compound 27] | 5.56 ± 1.39 µM | 1 | 10 nM | 7.76 ± 1.28 µM | 10 µM | – | – | 1.82 ± 0.73 µM | 3.11 ± 1.09 µM | – | 2.2 |
